Test in all cases: ≥ marks a high value that may be exact or a test limit, other limits are often not marked, values filed in µg/mL are converted to µM
Test [1] concerns Escherichia coli ATCC 25922.
For test [2], the system named is Escherichia coli.
Test [3] has as its system Staphylococcus aureus.
The test system of test [4] is Staphylococcus aureus ATCC 25923.
Test [5] deals with Pseudomonas aeruginosa ATCC 27853.

Converted amounts (≈) assume the structure as drawn. “And” between values parts separate entries of the source, which are not always exact repeats. Identical values can stand only once.

As usually defined, the MIC is the least concentration at which growth counts as inhibited. Read a high MIC as a less susceptible organism. Turning to `CC(C)C[C@H](NC(=O)[C@H](CCC(N)=O)NC(=O)[C@H](CCCN=C(N)N)NC(=O)[C@H](CCCN=C(N)N)NC(=O)[C@@H]1CCCN1C(=O)[C@H](C)N)C(=O)N[C@@H](CCCCN)C(=O)N[C@@H](Cc1c[nH]c2ccccc12)C(=O)O` [APRRQLKW], in test [1], the MIC is 15.2 µM (≈ 16 µg/mL). For `CSCC[C@@H]1NC(=O)[C@H](CC(C)C)NC(=O)[C@H](CCCN=C(N)N)NC(=O)[C@H](CO)NC(=O)[C@@H]2CSSC[C@@H]3NC(=O)[C@H](CO)NC(=O)CNC(=O)[C@H]([C@@H](C)O)NC(=O)[C@H](CSSC[C@H](N)C(=O)N[C@@H](CCCCN)C(=O)NCC(=O)N[C@@H](CCCCN)C(=O)NCC(=O)N[C@@H](C)C(=O)N[C@@H](CCCCN)C(=O)N2)NC(=O)[C@H](CSSC[C@@H](C(=O)NCC(=O)N[C@@H](CO)C(=O)O)NC(=O)[C@H](CCCCN)NC(=O)CNC(=O)[C@H](CO)NC(=O)[C@H](CCCN=C(N)N)NC3=O)NC(=O)[C@H](CC(=O)O)NC(=O)[C@H](Cc2ccc(O)cc2)NC1=O` [CKGKGAKCSRLMYDCCTGSCRSGKCGS], the MIC in test [2] and in test [3] was > 500 µM throughout. In the case of `CC(C)[C@H](NC(=O)[C@H](CCCCN)NC(=O)[C@@H](N)Cc1ccccc1)C(=O)N[C@H](C(=O)N[C@@H](Cc1c[nH]c2ccccc12)C(=O)N[C@@H](CCCCN)C(=O)N[C@H](C(=O)N[C@@H](CCCCN)C(=O)N[C@@H](Cc1c[nH]c2ccccc12)C(=O)N[C@@H](Cc1c[nH]c2ccccc12)C(=O)N[C@@H](CCCCN)C(=O)NCC(N)=O)[C@@H](C)O)[C@@H](C)O` [FKVTWKTKWWKG], the MIC in test [1] turned out to be 4.38 µM (≈ 6.99 µg/mL); in test [4], 7.59 µM (≈ 12.1 µg/mL). Regarding `CC[C@H](C)[C@H](NC(=O)[C@H](CCCCN)NC(=O)[C@H](CC(C)C)NC(=O)[C@H](C)NC(=O)[C@H](C)NC(=O)[C@H](CCCCN)NC(=O)[C@H](CC(C)C)NC(=O)[C@H](C)NC(=O)[C@H](CCCCN)NC(=O)CNC(=O)[C@H](CC(C)C)NC(=O)[C@H](Cc1ccccc1)NC(=O)[C@H](CO)NC(=O)CNC(=O)[C@H](Cc1ccccc1)NC(=O)CN)C(=O)NCC(=O)N[C@@H](C)C(=O)N[C@@H](CC(=O)O)C(=O)N[C@H](C(=O)N[C@@H](CC(C)C)C(=O)NCC(=O)NCC(=O)N[C@@H](C)C(=O)N1CCC[C@H]1C(=O)N[C@@H](CCC(N)=O)C(=O)N[C@@H](CCC(N)=O)C(=O)O)C(C)C` [GFGSFLGKALKAALKIGADVLGGAPQQ], the MIC in test [2] was > 50 µM; in test [3] it was 25 µM (≈ 65.4 µg/mL). Consider `CC(C)C[C@H](NC(=O)[C@H](C)NC(=O)[C@H](CCCCN)NC(=O)[C@H](C)NC(=O)[C@H](C)NC(=O)CNC(=O)[C@H](CCCCN)NC(=O)[C@H](CC(C)C)NC(=O)[C@H](CC(C)C)NC(=O)[C@H](CC(=O)O)NC(=O)[C@H](CCCCN)NC(=O)[C@H](Cc1ccccc1)NC(=O)CN)C(=O)N[C@H](C(=O)N[C@@H](CCCCN)C(=O)N[C@H](C(=O)N[C@H](C(=O)N[C@@H](CC(C)C)C(=O)N[C@@H](CCCCN)C(N)=O)C(C)C)[C@@H](C)O)C(C)C` [GFKDLLKGAAKALVKTVLK], for which the values for the MIC in test [1] and in test [4] were 5 µM (≈ 10 µg/mL) and 18.8 µM (≈ 37.6 µg/mL), respectively. For `CC[C@H](C)[C@H](NC(=O)CN)C(=O)N[C@@H](CCSC)C(=O)N[C@@H](CC(=O)O)C(=O)N[C@@H](CO)C(=O)N[C@H](C(=O)N[C@@H](CCCCN)C(=O)N[C@@H](CC(N)=O)C(=O)N[C@@H](C)C(=O)N[C@@H](C)C(=O)N[C@@H](CCCCN)C(=O)N[C@@H](CC(N)=O)C(=O)N[C@@H](CC(C)C)C(=O)N[C@@H](C)C(=O)NCC(=O)N[C@@H](CCC(N)=O)C(=O)N[C@@H](CC(C)C)C(=O)N[C@@H](CC(C)C)C(=O)N[C@@H](CC(=O)O)C(=O)N[C@H](C(=O)N[C@H](C(=O)N[C@@H](CCCCN)C(=O)N[C@H]1CSSC[C@@H](C(=O)O)NC(=O)[C@H](C)NC(=O)[C@H]([C@@H](C)O)NC(=O)[C@H]([C@@H](C)CC)NC(=O)[C@H](CCCCN)NC1=O)[C@@H](C)CC)[C@@H](C)O)C(C)C` [GIMDSVKNAAKNLAGQLLDTIKCKITAC], the MIC in test [1] stood at 25 µM (≈ 73 µg/mL). Regarding `CC[C@H](C)[C@H](NC(=O)[C@H](CCCN=C(N)N)NC(=O)[C@H](CCCCN)NC(=O)[C@H](C)NC(=O)[C@H](CC(C)C)NC(=O)CN)C(=O)N[C@@H](CCCCN)C(=O)N[C@H](C(=O)N[C@@H](CC(C)C)C(=O)N[C@@H](CC(C)C)C(N)=O)[C@@H](C)O` [GLAKRIKTLL], the MIC in test [1] and in test [4] was > 34.2 µM throughout.

For the molecule `CC[C@H](C)[C@H](NC(=O)[C@H](CC(C)C)NC(=O)[C@H](CCCCN)NC(=O)[C@H](CC(C)C)NC(=O)[C@H](CC(C)C)NC(=O)CN)C(=O)N[C@@H](CCCCN)C(=O)N[C@H](C(=O)N[C@@H](CC(C)C)C(=O)N[C@@H](CC(C)C)C(N)=O)[C@@H](C)O` [GLLKLIKTLL], the MIC in test [1] and in test [4] was 1.8 µM (≈ 2 µg/mL) in each case. For the molecule `CC[C@H](C)[C@H](NC(=O)[C@H](CCCCN)NC(=O)[C@@H](NC(=O)[C@H](CCCN=C(N)N)NC(=O)[C@H](CCCCN)NC(=O)[C@H](CC(C)C)NC(=O)[C@H](CC(C)C)NC(=O)CN)[C@@H](C)CC)C(=O)N[C@@H](CC(C)C)C(=O)N[C@@H](CC(C)C)C(N)=O` [GLLKRIKILL], the MIC in test [1] was found to be 7.72 µM (≈ 8.99 µg/mL); in test [4] it was 12 µM (≈ 14 µg/mL). Molecule `CC[C@H](C)[C@H](NC(=O)[C@H](CCCN=C(N)N)NC(=O)[C@H](CCCCN)NC(=O)[C@H](CC(C)C)NC(=O)[C@H](CC(C)C)NC(=O)CN)C(=O)N[C@@H](CCCCN)C(=O)N[C@@H](CO)C(=O)N[C@@H](CC(C)C)C(=O)N[C@@H](CC(C)C)C(N)=O` [GLLKRIKSLL] showed an MIC in test [1] of 100 µM (≈ 114 µg/mL). As to `CC[C@H](C)[C@H](NC(=O)[C@H](CCCN=C(N)N)NC(=O)[C@H](CCCCN)NC(=O)[C@H](CC(C)C)NC(=O)[C@H](CC(C)C)NC(=O)CN)C(=O)N[C@@H](CCCCN)C(=O)N[C@H](C(=O)N[C@@H](CC(C)C)C(=O)N[C@@H](C)C(N)=O)[C@@H](C)O` [GLLKRIKTLA], the MIC in test [1] and in test [4] was > 43.1 µM in each case. `CC[C@H](C)[C@H](NC(=O)[C@H](CCCN=C(N)N)NC(=O)[C@H](CCCCN)NC(=O)[C@H](CC(C)C)NC(=O)[C@H](CCSC)NC(=O)CN)C(=O)N[C@@H](CCCCN)C(=O)N[C@H](C(=O)N[C@@H](CC(C)C)C(=O)N[C@@H](CCSC)C(N)=O)[C@@H](C)O` [GMLKRIKTLM]: in test [1], the MIC was > 200 µM. In test [2], `CC[C@H](C)[C@H](N)C(=O)NCC(=O)N[C@@H](CCCCN)C(=O)N[C@@H](CC(C)C)C(=O)N1CCC[C@H]1C(=O)N[C@@H](CCCCN)C(=O)N[C@@H](Cc1c[nH]c2ccccc12)C(=O)N[C@H](C(=O)N[C@H](C(=O)N[C@@H](CCCCN)C(=O)N[C@H](C(=O)N[C@H](C(=O)N[C@@H](CC(N)=O)C(=O)N[C@@H](CCCCN)C(=O)N[C@@H](Cc1ccccc1)C(=O)N[C@H](C(=O)N[C@@H](CCCCN)C(=O)N[C@@H](CCCCN)C(=O)O)[C@@H](C)O)C(C)C)[C@@H](C)O)[C@@H](C)CC)[C@@H](C)CC` [IGKLPKWIIKTVNKFTKK] gave an MIC of 2.1 µM (≈ 4.5 µg/mL). Take `CC(C)C[C@H](NC(=O)[C@H](C)NC(=O)[C@H](CCCCN)NC(=O)[C@H](CC(C)C)NC(=O)[C@H](C)NC(=O)[C@H](CCCCN)NC(=O)[C@H](CCCCN)NC(=O)[C@H](CC(C)C)NC(=O)[C@H](C)NC(=O)[C@H](CCCCN)NC(=O)[C@H](CC(C)C)NC(=O)[C@H](C)NC(=O)[C@H](CCCCN)NC(=O)[C@H](CCCCN)NC(=O)[C@H](CC(C)C)NC(=O)[C@H](C)NC(=O)[C@H](CCCCN)NC(=O)[C@H](CC(C)C)NC(=O)[C@H](C)NC(=O)[C@@H](N)CCCCN)C(=O)N[C@@H](CCCCN)C(N)=O` [KALKALKKALKALKKALKALK]: the results for the MIC in test [1], in test [5] and in test [4] were 4 µM (≈ 9.1 µg/mL), 4 µM (≈ 9.1 µg/mL) and 8 µM (≈ 18.2 µg/mL), respectively. Regarding `CC[C@H](C)[C@H](NC(=O)[C@H](CCCCN)NC(=O)[C@H](CCCN=C(N)N)NC(=O)[C@H](CC(C)C)NC(=O)[C@H](CCCN=C(N)N)NC(=O)[C@H](CO)NC(=O)[C@H](Cc1c[nH]c2ccccc12)NC(=O)[C@@H](NC(=O)[C@@H](N)CCCCN)C(C)C)C(=O)N[C@@H](Cc1ccccc1)C(=O)N[C@@H](CO)C(=O)N[C@H](C(=O)N[C@@H](CCCN=C(N)N)C(N)=O)[C@@H](C)O` [KVWSRLRKIFSTR], the MIC in test [1] is 2.64 µM and 5.27 µM. In turn, `CC(C)C[C@H](NC(=O)[C@H](Cc1ccccc1)NC(=O)[C@@H]1CCCN1C(=O)[C@H](C)NC(=O)[C@H](Cc1c[nH]c2ccccc12)NC(=O)[C@H](C)NC(=O)[C@@H]1CCCN1C(=O)[C@H](Cc1ccccc1)NC(=O)[C@H](CCCN=C(N)N)NC(=O)[C@H](CCCN=C(N)N)NC(=O)[C@@H](N)C(C)C)C(=O)N[C@@H](CCCN=C(N)N)C(=O)N[C@@H](CCCN=C(N)N)C(N)=O` [VRRFPAWAPFLRR] registered an MIC in test [1] of 90.5 µM (≈ 151 µg/mL). Take `CC(C)C[C@H](NC(=O)[C@H](Cc1ccccc1)NC(=O)[C@@H]1CCCN1C(=O)[C@H](C)NC(=O)[C@H](C)NC(=O)[C@H](Cc1c[nH]c2ccccc12)NC(=O)[C@@H]1CCCN1C(=O)[C@H](Cc1ccccc1)NC(=O)[C@H](CCCN=C(N)N)NC(=O)[C@H](CCCN=C(N)N)NC(=O)[C@@H](N)C(C)C)C(=O)N[C@@H](CCCN=C(N)N)C(=O)N[C@@H](CCCN=C(N)N)C(N)=O` [VRRFPWAAPFLRR]: the MIC in test [1] was determined as 90.5 µM (≈ 151 µg/mL).

Regarding `CC(C)[C@H](NC(=O)[C@H](CC(=O)O)NC(=O)[C@H](CO)NC(=O)[C@H](CCCCN)NC(=O)[C@@H](N)Cc1c[nH]c2ccccc12)C(=O)N[C@@H](CCCN=C(N)N)C(=O)N[C@@H](CCCN=C(N)N)C(=O)N[C@@H](Cc1c[nH]c2ccccc12)C(=O)N[C@@H](CCCN=C(N)N)C(=O)N[C@@H](CO)C(=O)N[C@@H](CCCN=C(N)N)C(=O)N[C@@H](Cc1ccc(O)cc1)C(N)=O` [WKSDVRRWRSRY], the MIC is 64 µM (≈ 108 µg/mL) in test [1], > 100 µM in test [5] and > 100 µM in test [4]. Turning to `CC(C)[C@H](NC(=O)[C@H](Cc1ccc(O)cc1)NC(=O)[C@H](CO)NC(=O)[C@H](CCCCN)NC(=O)[C@@H](N)Cc1c[nH]c2ccccc12)C(=O)N[C@@H](CCCN=C(N)N)C(=O)N[C@@H](CCCN=C(N)N)C(=O)N[C@@H](Cc1c[nH]c2ccccc12)C(=O)N[C@@H](CCCN=C(N)N)C(N)=O` [WKSYVRRWR], the MIC was 64 µM (≈ 85.5 µg/mL) in test [1], > 100 µM in test [5] and 64 µM (≈ 85.5 µg/mL) in test [4].

Values taken from DBAASP.
